A short description of this data set: preliminary toxicity study. As to conditions: no details given.

On to `CCCCCCNC(=O)OCC#CC#CCOC(=O)NCCCCCC` [compound 166, 2,4-hexadiyn-1,6-bis(n-hexylurethane)], for which the toxicity entry is reported as “nontoxic”.

The record behind these values is patent publication US20050208290A1, “Thick radiation sensitive devices” (priority 2003, published 2005).
